Experimental data reported in patent US10329294B2, “Pyrazolopyrimidine inhibitors of IRAK4 activity” (MERCK SHARP & DOHME CORP., priority 2015, dated 2019).
Structures can show the parent of a compound that is named as a salt.

The compounds below were run against IRAK4 (Homo sapiens (Human), UniProt Q9NWZ3) (assay: IRAK4 Kinase Assay). Conditions: IMAP fluorescence polarization, 0.5 nM GST tagged IRAK4, 100 μM ATP, 30 minutes at 25° C.; read-out: IRAK4 IC50.
Assay type: biochemical
Method: The kinase activity of IRAK4 is determined by its ability to catalyze the phosphorylation of a fluorescent polypeptide substrate. The extent of phosphorylation is measured using the IMAP technology (Molecular Devices) where the phosphorylated fluorescent substrate binds to the large M(III)-based nanoparticles which reduces the rotational speed of the substrate and thus increases its fluorescent polarization (FP).
20 μL reaction mixture contains 10 mM TriHCl, pH 7.2, 0.5 nM GST tagged IRAK4 (SignalChem), 100 nM fluorescent peptide substrate (RP7030, Molecular Devices), 100 μM ATP, 1 mM DDT, 1 mM MgCl2, and 0.01% Tween 20. The reaction is initiated by the addition of ATP. After incubation for 30 minutes at 25° C., 60 μL of Progressive IMAP Reagent (Molecular Devices) is added to stop the reaction. Change in RP7030's FP is determined by a FP reader (Analyst HT, LJL BioSystems).

IRAK4, sequence (Q9NWZ3 whole entry): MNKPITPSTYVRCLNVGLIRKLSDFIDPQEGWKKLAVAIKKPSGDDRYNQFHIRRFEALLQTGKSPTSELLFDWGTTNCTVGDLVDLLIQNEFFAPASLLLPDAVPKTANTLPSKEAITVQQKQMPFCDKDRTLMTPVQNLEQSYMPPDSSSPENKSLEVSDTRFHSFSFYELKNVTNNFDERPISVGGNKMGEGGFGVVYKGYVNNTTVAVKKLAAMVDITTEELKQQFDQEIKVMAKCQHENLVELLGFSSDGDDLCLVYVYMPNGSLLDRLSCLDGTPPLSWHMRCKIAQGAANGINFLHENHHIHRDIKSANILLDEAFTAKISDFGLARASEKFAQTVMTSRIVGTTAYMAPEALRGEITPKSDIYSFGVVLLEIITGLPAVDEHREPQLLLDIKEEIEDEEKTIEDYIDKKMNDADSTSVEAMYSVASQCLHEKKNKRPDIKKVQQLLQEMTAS

Compared with `O=C(Nc1cscc1Cl)c1cnn2ccc(N3C[C@@H]4CC[C@H]3CN4)nc12` (single isomer, unassigned) [Example 169, N-(4-chlorothiophen-3-yl)-5-[(1S,4S)- or (1R,4R)-2,5-diazabicyclo[2.2.2]oct-2-yl]pyrazolo[1,5-a]pyrimidine-3-carboxamide trifluoroacetate], `O=C(Nc1cscc1Cl)c1cnn2ccc(N3C[C@H]4CC[C@@H]3CN4)nc12` (single isomer, unassigned) [Example 171, N-(4-chlorothiophen-3-yl)-5-[(1S,4S)- or (1R,4R)-2,5-diazabicyclo[2.2.2]oct-2-yl]pyrazolo[1,5-a]pyrimidine-3-carboxamide trifluoroacetate] is 2.6-fold higher in IC50: 150 nM for the first, 383 nM for the second. The first is the more potent here.

Compared with `Cn1cc(NC(=O)c2cnn3ccc(N4CC[C@@H](F)[C@@H](N)C4)nc23)c(C(F)F)n1` (single isomer, unassigned) [Example 178, 5-[(3S,4R)- or (3R,4S)-3-amino-4-fluoropiperidin-1-yl]-N-[3-(difluoromethyl)-1-methyl-1H-pyrazol-4-yl]pyrazolo[1,5-a]pyrimidine-3-carboxamide trifluoroacetate], `Cn1cc(NC(=O)c2cnn3ccc(N4CC[C@H](F)[C@H](N)C4)nc23)c(C(F)F)n1` (single isomer, unassigned) [Example 179, 5-[(3S,4R)- or (3R,4S)-3-amino-4-fluoropiperidin-1-yl]-N-[3-(difluoromethyl)-1-methyl-1H-pyrazol-4-yl]pyrazolo[1,5-a]pyrimidine-3-carboxamide trifluoroacetate] is 8-fold lower in IC50: 4 nM for the first, 0.5 nM for the second.

First: Cn1cc(NC(=O)c2cnn3ccc(N4C[C@@H]5CN[C@@H](C5)C4)nc23)c(C(F)F)n1 (single isomer, unassigned) [Example 183, 5-[(1S,5S)- or (1R,5R)-3,6-diazabicyclo[3.2.1]oct-3-yl]-N-[3-(difluoromethyl)-1-methyl-1H-pyrazol-4-yl]pyrazolo[1,5-a]pyrimidine-3-carboxamide trifluoroacetate]
Second: Cn1cc(NC(=O)c2cnn3ccc(N4C[C@H]5CN[C@H](C5)C4)nc23)c(C(F)F)n1 (single isomer, unassigned) [Example 184, 5-[(1S,5S)- or (1R,5R)-3,6-diazabicyclo[3.2.1]oct-3-yl]-N-[3-(difluoromethyl)-1-methyl-1H-pyrazol-4-yl]pyrazolo[1,5-a]pyrimidine-3-carboxamide trifluoroacetate]
The IC50 of the first is 7.8-fold lower: 6 nM for the first, 47 nM for the second. The first is the more potent here.

First: Cn1cc(NC(=O)c2cnn3ccc(N4CCC(F)(F)[C@@H](N)C4)nc23)c(C(F)(F)F)n1 (single isomer, unassigned) [Example 188, 5-[(4R)- or (4S)-(3-amino-4,4-difluoropiperidin-1-yl)-N-[1-methyl-3-(trifluoromethyl)-1H-pyrazol-4-yl]pyrazolo[1,5-a]pyrimidine-3-carboxamide trifluoroacetate]
Second: Cn1cc(NC(=O)c2cnn3ccc(N4CCC(F)(F)[C@H](N)C4)nc23)c(C(F)(F)F)n1 (single isomer, unassigned) [Example 192, 5-[(4R)- or (4S)-(3-amino-4,4-difluoropiperidin-1-yl)-N-[1-methyl-3-(trifluoroemthyl)-1H-pyrazol-4-yl]pyrazolo[1,5-a]pyrimidine-3-carboxamide trifluoroacetate]
The IC50 of the first is 2.6-fold higher: 60 nM for the first, 23 nM for the second. The second is the more potent here.

`Cn1cc(NC(=O)c2cnn3ccc(N4CCC(F)(F)[C@@H](N)C4)nc23)c(C(F)F)n1` (single isomer, unassigned) [Example 189, 5-[(4R)- or (4S)-(3-amino-4,4-difluoropiperidin-1-yl)-N-[3-(difluoromethyl)-1-methyl-1H-pyrazol-4-yl]pyrazolo[1,5-a]pyrimidine-3-carboxamide trifluoroacetate] and `Cn1cc(NC(=O)c2cnn3ccc(N4CCC(F)(F)[C@H](N)C4)nc23)c(C(F)F)n1` (single isomer, unassigned) [Example 193, 5-[(4R)- or (4S)-(3-amino-4,4-difluoropiperidin-1-yl)-N-[3-(difluoromethyl)-1-methyl-1H-pyrazol-4-yl]pyrazolo[1,5-a]pyrimidine-3-carboxamide trifluoroacetate] are the same in IC50: 2 nM for the first, 2 nM for the second.

Compared with `Cn1cc(NC(=O)c2cnn3ccc(N[C@H]4C(O)CCC[C@H]4N)nc23)c(C(F)(F)F)n1` (single isomer, unassigned) [Example 202, 5-{[(1R,2R)- or (1S,2S)-2-amino-6-hydroxycyclohexyl]amino}-N-[1-methyl-3-(trifluoromethyl)-1H-pyrazol-4-yl]pyrazolo[1,5-a]pyrimidine-3-carboxamide], `Cn1cc(NC(=O)c2cnn3ccc(N[C@@H]4CCCC(F)[C@@H]4N)nc23)c(C(F)(F)F)n1` (single isomer, unassigned) [Example 203, 5-{[(1R,2R)- or (1S,2S)-2-amino-3-fluorocyclohexyl]amino}-N-[1-methyl-3-(trifluoromethyl)-1H-pyrazol-4-yl]pyrazolo[1,5-a]pyrimidine-3-carboxamide] is 1.8-fold higher in IC50: 4 nM for the first, 7 nM for the second.

Going from `Cn1cc(NC(=O)c2cnn3ccc(N[C@H]4CCC(F)(F)C[C@H]4N)nc23)c(C(F)F)n1` (single isomer, unassigned) [Example 209, 5-{[(1S,2R)- or (1R,2S)-2-amino-4,4-difluorocyclohexyl]amino}-N-[3-(difluoromethyl)-1-methyl-1H-pyrazol-4-yl]pyrazolo[1,5-a]pyrimidine-3-carboxamide] to `Cn1cc(NC(=O)c2cnn3ccc(N[C@@H]4CCC(F)(F)C[C@@H]4N)nc23)c(C(F)F)n1` (single isomer, unassigned) [Example 211, 5-{[(1S,2R)- or (1R,2S)-2-amino-4,4-difluorocyclohexyl]amino}-N-[3-(difluoromethyl)-1-methyl-1H-pyrazol-4-yl]pyrazolo[1,5-a]pyrimidine-3-carboxamide], the IC50 rises from 1 nM to 27 nM (27-fold). The first is the more potent here.

Compared with `Cn1cc(NC(=O)c2cnn3ccc(N[C@H]4CC(F)(F)CC[C@H]4N)nc23)c(C(F)F)n1` (single isomer, unassigned) [Example 210, 5-{[(1S,2R)- or (1R,2S)-2-amino-5,5-difluorocyclohexyl]amino}-N-[3-(difluoromethyl)-1-methyl-1H-pyrazol-4-yl]pyrazolo[1,5-a]pyrimidine-3-carboxamide], `Cn1cc(NC(=O)c2cnn3ccc(N[C@@H]4CNCC(F)(F)C4)nc23)c(C(F)F)n1` (single isomer, unassigned) [Example 228, N-[3-(difluoromethyl)-1-methyl-1H-pyrazol-4-yl]-5-{[(3S)- or (3R)-5,5-difluoropiperidin-3-yl]amino}pyrazolo[1,5-a]pyrimidine-3-carboxamide] is 59-fold higher in IC50: 1 nM for the first, 59 nM for the second.

Going from `Cn1cc(NC(=O)c2cnn3ccc(N[C@@H]4CNCC(F)(F)C4)nc23)c(C(F)(F)F)n1` (single isomer, unassigned) [Example 218, 5-{[(3S)- or (3R)-5,5-difluoropiperidin-3-yl]amino}-N-[1-methyl-3-(trifluoromethyl)-1H-pyrazol-4-yl]pyrazolo[1,5-a]pyrimidine-3-carboxamide] to `Cn1cc(NC(=O)c2cnn3ccc(N[C@H]4CNCC(F)(F)C4)nc23)c(C(F)(F)F)n1` (single isomer, unassigned) [Example 219, 5-{[(3S)- or (3R)-5,5-difluoropiperidin-3-yl]amino}-N-[1-methyl-3-(trifluoromethyl)-1H-pyrazol-4-yl]pyrazolo[1,5-a]pyrimidine-3-carboxamide], the IC50 falls from 685 nM to 7 nM (98-fold).

Compared with `Cn1cc(NC(=O)c2cnn3ccc(N4[C@@H]5CCNC[C@H]4CC5)nc23)c(C(F)(F)F)n1` (single isomer, unassigned) [Example 221, 5-[(1R,6S)- or (1S,6R)-3,9-diazabicyclo[4.2.1]non-9-yl]-N-[1-methyl-3-(trifluoromethyl)-1H-pyrazol-4-yl]pyrazolo[1,5-a]pyrimidine-3-carboxamide trifluoroacetate], `Cn1cc(NC(=O)c2cnn3ccc(N4[C@H]5CCNC[C@@H]4CC5)nc23)c(C(F)(F)F)n1` (single isomer, unassigned) [Example 222, 5-[(1R,6S)- or (1S,6R)-3,9-diazabicyclo[4.2.1]non-9-yl]-N-[1-methyl-3-(trifluoromethyl)-1H-pyrazol-4-yl]pyrazolo[1,5-a]pyrimidine-3-carboxamide trifluoroacetate] is 2-fold lower in IC50: 330 nM for the first, 168 nM for the second. The second is the more potent here.

Compared with `Cn1cc(NC(=O)c2cnn3ccc(N4C[C@@H]5CN[C@@H](C5)C4)nc23)c(C(F)(F)F)n1` (single isomer, unassigned) [Example 224, 5-[(1S,5S)- or (1R,5R)-3,6-diazabicyclo[3.2.1]oct-3-yl]-N-[1-methyl-3-(trifluoromethyl)-1H-pyrazol-4-yl]pyrazolo[1,5-a]pyrimidine-3-carboxamide], `Cn1cc(NC(=O)c2cnn3ccc(N4C[C@H]5CN[C@H](C5)C4)nc23)c(C(F)(F)F)n1` (single isomer, unassigned) [Example 225, 5-[(1S,5S)- or (1R,5R)-3,6-diazabicyclo[3.2.1]oct-3-yl]-N-[1-methyl-3-(trifluoromethyl)-1H-pyrazol-4-yl]pyrazolo[1,5-a]pyrimidine-3-carboxamide] is 4.4-fold higher in IC50: 70 nM for the first, 310 nM for the second.

Same assay, conditions: IRAK4 IC50 (nM), IMAP fluorescence polarization, 0.5 nM GST tagged IRAK4, 100 μM ATP, 30 minutes at 25° C.

Compared with `Cn1cc(NC(=O)c2cnn3ccc(N[C@@H]4CCCC(O)[C@@H]4N)nc23)c(C(F)(F)F)n1` (single isomer, unassigned) [Example 201, 5-{[(1R,2R)- or (1S,2S)-2-amino-3-hydroxycyclohexyl]amino}-N-[1-methyl-3-(trifluoromethyl)-1H-pyrazol-4-yl]pyrazolo[1,5-a]pyrimidine-3-carboxamide], `Cn1cc(NC(=O)c2cnn3ccc(N[C@H]4CC(F)(F)CC[C@H]4N)nc23)c(C(F)F)n1` (single isomer, unassigned) [Example 208, 5-{[(1S,2R)- or (1R,2S)-2-amino-5,5-difluorocyclohexyl]amino}-N-[3-(difluoromethyl)-1-methyl-1H-pyrazol-4-yl]pyrazolo[1,5-a]pyrimidine-3-carboxamide] is 9.5-fold higher in IC50: 4 nM for the first, 38 nM for the second. The first is the more potent here.
